Results taken from US9719981B2, “RAC1 inhibitors for the treatment of alport glomerular disease” (Father Flanagan's Boys' Home, priority 2012, dated 2017).

Experiments:
[1] = test system: 129 autosomal Alport mice; assay: Endothelin receptor blockade (Bosentan or Sitaxentan) in 129 autosomal Alport mice; format: in vivo, mouse; settings: for Mesangial filopodial invasion and deposition of laminin 211 in the glomerular capillaries: Alport mouse model; for Ameliorating Alport renal disease (comparison of the two antagonists) / GBM structural abnormalities / Glomerular expression of MMPs and pro-inflammatory cytokines / Mesangial process invasion of the glomerular capillaries / Onset and progression of proteinuria: treated from 2 to 7 weeks of age
Procedure: With this example, 129 autosomal Alport mice were given either Bosentan (an endothelin A and B receptor antagonist) or Sitaxentan (an endothelin A receptor antagonist) from 2 to 7 weeks of age. Mice were analyzed longitudinally for proteinuria and BUN, glomerular RNA for gene expression of MMPs and pro-inflammatory cytokines by real time RT-PCR, and tissue was analyzed histochemistry and immunohistochemistry for pathologic changes.
To determine whether ETR antagonism prevents mesangial filopodia formation in vivo, we treated 129 Sv Alport mice with either Bosentan (ETAR and ETBR antagonist) or Sitaxentan (an ETAR antagonist) from 2 weeks to 7 weeks of age.

[2] = test system: 129 Sv autosomal Alport mice; assay: Bosentan treatment of 129 Sv autosomal Alport mice; format: in vivo, mouse
Procedure: It is known that matrix metalloproteinases (MMPs), transforming growth factor beta 1 (TGF-β1), and monocyte chemoattractant protein-1 (MCP-1) contribute to the progression of Alport glomerular pathology (Cosgrove et al., 2000, Am J Pathol; 157(5):1649-59; Rao et al., 2006, Am J Pathol; 169(1):32-46; Eisberg et al., 2006, PLoS Med; 3(4):e100). 129 Sv autosomal Alport mice and wild type littermates were treated with 100 mg/kg Bosentan or with […] vehicle by oral gavage from 2 to 7 weeks of age. One kidney was prepared for immunohistochemistry, and the other used for glomerular RNA isolation. […] MMP-9 expression was not affected; however this MMP has been shown not to contribute to progression of Alport glomerular disease (Andrews et al., 2000, Am J Pathol; 157(1):303-11). Kidney cryosections from these same mice were immunostained using antibodies against fibronectin, to assess interstitial fibrosis, and CD11b, to assess the degree of monocytic interstitial infiltration.

[3] = test system: primary cultured mesangial cells; assay: Boyden chamber (Transwell) cell migration assay, wild type mesangial cells; format: cell-based, mouse; settings: relative to 10% FCS, p<0.05
Procedure: MES Migration (insert). Transwell cell migration assays were performed as described by Daniel et al. (Daniel et al., 2012, Lab Invest; 92(6): 812-26) with some modifications. 8 micron, 24-well plate control inserts (BD Bioscience, Bedford, Mass.) were coated overnight at 4° C. with 100 μl of 0.1% gelatin/PBS then washed 1× with PBS. MES cultures were incubated in 1% FCS overnight, then 0.05% BSA-containing media for at least 8 hours, washed 1× with PBS and carefully tryspinized to ensure a single cell suspension and limited “clumping” of cells. After serum-neutralization and subsequent centrifugation, ˜100,000 cells were resuspended in 1.5 mls of 0.05% BSA media containing activators/inhibitors. The wells of a 24-well plate were filled with 0.75 mls of 10% FCS-containing media plus activators/inhibitors (excluding 0.05% BSA control well). 0.5 ml of cell-suspension was loaded into the gelatin-coated insert and the insert placed in a well. Wells were visually inspected for bubbles beneath insert and equal distribution of cell-suspension. Cells were allowed to migrate overnight (˜18 hrs). Using a moistened cotton swab, non-migrated cells were liberated from the apical-side of the insert by gentle but firm rubbing. A second swab repeated the removal and was followed by a single wash with PBS. Inserts were fixed, stained and washed (2×) in companion 24 well plate(s) containing 0.5 mls MEOH, 0.5 mls 1% Toluidine Blue in 1% Borax and 0.5 mls distilled H2O, respectively. Inserts were air dried and counted at 100× magnification. Five fields were counted on each insert including one center and four periphery areas. Data was expressed as relative to 10% FCS control well (set equal to one).

[4] = test system: integrin α1-null mesangial cells; assay: Boyden chamber (Transwell) cell migration assay, integrin α1-null mesangial cells; format: cell-based, mouse; settings: relative to 10% FCS
Procedure: MES Migration (insert). Transwell cell migration assays were performed as described by Daniel et al. (Daniel et al., 2012, Lab Invest; 92(6): 812-26) with some modifications. 8 micron, 24-well plate control inserts (BD Bioscience, Bedford, Mass.) were coated overnight at 4° C. with 100 μl of 0.1% gelatin/PBS then washed 1× with PBS. MES cultures were incubated in 1% FCS overnight, then 0.05% BSA-containing media for at least 8 hours, washed 1× with PBS and carefully tryspinized to ensure a single cell suspension and limited “clumping” of cells. After serum-neutralization and subsequent centrifugation, ˜100,000 cells were resuspended in 1.5 mls of 0.05% BSA media containing activators/inhibitors. The wells of a 24-well plate were filled with 0.75 mls of 10% FCS-containing media plus activators/inhibitors (excluding 0.05% BSA control well). 0.5 ml of cell-suspension was loaded into the gelatin-coated insert and the insert placed in a well. Wells were visually inspected for bubbles beneath insert and equal distribution of cell-suspension. Cells were allowed to migrate overnight (˜18 hrs). […] Inserts were air dried and counted at 100× magnification. Five fields were counted on each insert including one center and four periphery areas. Data was expressed as relative to 10% FCS control well (set equal to one).

[5] = test system: cultured wild type mesangial cells; assay: LPS-induced actin cytoskeletal rearrangement (phalloidin staining); format: cell-based, mouse; settings: 10 ng/ml LPS; 10 μM Rac-1 inhibitor or 1 μM CDC42 inhibitor; blinded
Procedure: Activation of mesangial cell cultures by treatment with LPS. Sub-confluent mesangial cells were tryspinized; plated at low density on Rat tail type 1 collagen (BD Biosciences) coated cytology slides (VWR) and incubated overnight in 1% FCS-containing media. One hour after the addition of serum-free media, 1 μM CDC42 Inhibitor (KSC-23-233) and 10 μM Rac-1 Inhibitor, NSC-23766 (Tocris) were added to individual slides and allowed to incubate for an additional hour. 10 ng/ml Lipopolysaccharides (Sigma-Aldrich) was added to cells, incubated 1 hour, fixed in ice cold acetone for 5 minutes and allowed to air dry ˜2 hours. Cells were stained with a 1:100 dilution of antibodies specific for CDC42 (10155-1-AP, PROTEINTECH™), and phalloidin (Molecular Probes) imaged. Untreated, LPS alone and LPS plus inhibitors treatments were repeated on two different derivations of primary mesangial cells with qualitatively consistent results.

[6] = test system: Alport mice on the 129 Sv background; assay: Treatment of Alport mice with Rac1 inhibitor; format: in vivo, mouse; settings: injected once daily from 2 weeks to 6 weeks of age; relative to saline
Procedure: FIG. 9. Treatment of Alport mice with Rac1 inhibitors partially ameliorates mesangial cell process invasion of the glomerular capillary tufts. […] Kidney cryosections were analyzed by dual immunofluorescence immunostaining using antibodies against either laminin α2 (B and E) or integrin α8 (A and D). […] represent a merging of results from staining with laminin α2 and integrin α8. The degree of mesangial process invasion of the glomerular capillary tufts was ameliorated in the Rac1 inhibitor-treated mice relative to mice injected with saline.
To examine the effect of Rac1 inhibitors on Alport glomerular disease progression, either wild type or Alport mice were treated with inhibitors by IP injection from 2 weeks to 6 weeks of age. Glomeruli were examined for mesangial process invasion of the capillary tufts by dual immunofluorescence microscopy using antibodies specific for either integrin α8 or the GBM marker laminin α5. […] Combined, the data in FIG. 7, FIG. 8, and FIG. 9 confirm that mesangial process invasion of the glomerular capillaries is a Rac1-dependent process, and that Rac1 activation is attenuated by integrin α1 deletion both in vitro and in vivo.
Immunofluorescence microscopy. Fresh frozen kidneys were sectioned at 8 μm and acetone fixed. […]

CDC42 = assay: ELISA for GTP-CDC42 in endothelin-1 treated mesangial cells; format: cell-based, mouse
Procedure: (§1) FIG. 30. Treatment of mesangial cells with endothelin-1 activates CDC42 and induces the formation of drebrin-positive actin microspikes; microspikes and CDC42 activation are inhibited by pre-treatment of cells with Sitaxentan. A) Cultured mesangial cells were serum starved, pretreated for 1 hour with or without Sitaxentan, treated for 30 minutes with endothelin-1, fixed with acetone, and dual stained with anti-drebrin antibodies (red) and phalloidin (green). Drebrin-positive microspikes (filopodia, denoted by arrowheads) are highly abundant on the endothelin-treated cells, but not detected when the cells are pre-treated with Sitaxentan. B) Cells were treated as in A, then lysates prepared and assayed by ELISA for GTP-CDC42.
(§2) To address this, serum-starved cultured mesangial cells were pre-treated (or not) with the ETAR antagonist, Sitaxentan, and then stimulated the cells with endothelin-1. Cells were then dual labeled with anti-drebrin antibodies (drebrin stabilizes actin filaments in filopodia) and phalloidin. […] Lysates from cultured mesangial cells were further analysed using these same conditions for the activation of CDC42 using a commercial ELISA assay for GTP-CDC42.

[7] = test system: 129 Sv autosomal Alport mice; assay: Sitaxentan treatment of 129 Sv autosomal Alport mice; format: in vivo, mouse
Procedure: FIG. 32. […] At least 6 glomeruli from at least 3 independent animals per group were analyzed by quantifying red fluorescence in circumferential capillary loops (defined by laminin α5 immunostaining in green) using NIH image J software. Mesangial angles were excluded. A) An example of how the capillaries were partitioned for these measures. B) Immunogold labeling for integrin α8 in a filopodial cross-section on the sub-endothelial aspect of an Alport capillary loop (arrow). Note the absence of immunogold labeling in the podocyte pedicles (asterisks) and the fenestrated endothelium (arrowheads). C) Quantitative results for red fluorescence in the capillary loops.
FIG. 33. […] Urine was collected at the indicated time points and analyzed for albumin using an ELISA kit. Albumin measures were normalized to urinary creatinine. Note that measurable albumin in the Sitaxentan-treated mice was not detected until 6 weeks of age indicating a delayed onset of glomerular disease.
129 Sv autosomal Alport mice were given Sitaxentan once daily by oral gavage from 2 weeks to 7 weeks of age. Kidney cryosections were immunostained using antibodies for laminin α2 and integrin α8 to determine the effect of drug treatment on laminin 211 deposition in the GBM or laminin α5 and integrin α8 to determine the degree of mesangial filopodial invasion in the glomerular capillaries. In addition, transmission electron microscopy was used to determine whether the ETAR antagonist ameliorates GBM damage.

cultured mesangial cells = assay: Endothelin-1 induced drebrin-positive actin microspikes in mesangial cells; format: cell-based, mouse
Procedure: as §1, §2

[8] = 100 mg/kg oral gavage from 2 to 7 weeks of age, vs vehicle
[9] = pretreated 1 hour, endothelin-1 for 30 minutes
[10] = serum-starved cells, 30 minutes

In the case of COc1ccccc1Oc1c(NS(=O)(=O)c2ccc(C(C)(C)C)cc2)nc(-c2ncccn2)nc1OCCO [Bosentan, 4-tert-butyl-N-[6-(2-hydroxy-ethoxy)-5-(2-methoxy-phenoxy)[2,{acuteover (2)}]-bipyrimidin-4-yl]-benzenesulfonamide monohydrate], the “Mesangial filopodial invasion and deposition of laminin 211 in the glomerular capillaries” value [1] is reported as “highly effective”, the “Ameliorating Alport renal disease (comparison of the two antagonists)” value [1] is reported as “equally effective” and the GBM structural abnormalities [1] is reported as “ameliorating”. For the same compound, the “Glomerular expression of MMPs and pro-inflammatory cytokines” value [1] was “significantly reducing”, the “Mesangial process invasion of the glomerular capillaries” value [1] was “markedly reduced” and the “Onset and progression of proteinuria” value [1] was “delaying the onset and progression”. For the same compound, the “Glomerular MMP-9 expression” value [2, 8] was “not affected”, the “Glomerular mRNA expression of IL-6” value [2, 8] was “significant reduction” and the “Glomerular mRNA expression of MMP-10” value [2, 8] was “significant reduction”. The “Glomerular mRNA expression of MMP-12” value [2, 8] was “significant reduction”, the “Glomerular mRNA expression of TGF-β1” value [2, 8] was “significant reduction” and the “Interstitial fibrosis (fibronectin immunostaining)” value ([2]; 7 weeks of age, vs vehicle) was “near complete blockade”. The “Mesangial process invasion of glomerular capillaries (integrin α8 / laminin α5 immunostaining)” value ([2]; 7 weeks of age, vs vehicle) was “largely localized to the mesangial matrix, with occasional interposition into the capillary loops observed”, the “Monocytic interstitial infiltration (CD11b immunostaining)” value ([2]; 7 weeks of age, vs vehicle) was “near complete blockade” and the “Glomerular expression of MCP-1” value ([2]; Bosentan-treated Alport mice vs vehicle) was “significantly reduced”.
With CCn1c(-c2nonc2N)nc2c(C#CC(C)(C)O)ncc(OC[C@H]3CCCNC3)c21 [GSK 690693] the “Migration of wild type mesangial cells” value [3] was “not affected”.
With CCN(CC)CCCC(C)Nc1nc(C)cc(Nc2ccc3nc(C)cc(N)c3c2)n1 (centres unmarked) [NSC 23766] the “Integrin α1-null mesangial cell migration” value [4] was “unaffected”, the “LPS-induced morphological change (filopodia / actin spikes) in presence of inhibitor” value [5] was “could not be distinguished in blinded experiments form untreated wild type mesangial cells” and the “Degree of mesangial process invasion of the glomerular capillary tufts” value [6] was “ameliorated”. For the same compound, the “Migration of wild type mesangial cells” value [3] was “significantly reduced”.
Cc1cc2c(cc1CC(=O)c1sccc1S(=O)(=O)Nc1onc(C)c1Cl)OCO2 [Sitaxentan, N-(4-chloro-3-methyl-1,2-oxazol-5-yl)-2-[2-(6-methyl-2H-1,3-benzodioxol-5-yl)acetyl]thiophene-3-sulfonamide] was tested, and the “Endothelin-1 induced CDC42 activation (GTP-CDC42), with antagonist pretreatment” value (CDC42; [9]) was “prevents”, the “GBM architecture (transmission electron microscopy)” value ([7]; 7 weeks of age) was “normalization” and the “Interstitial fibrosis (fibronectin immunostaining)” value ([7]; 7 weeks of age) was “profoundly ameliorated”. The “Monocyte recruitment to the renal interstitium (CD11b immunostaining)” value ([7]; 7 weeks of age) was “profoundly ameliorated”, the “Capillary integrin α8 immunostaining (quantified red fluorescence)” value ([7]; at least 6 glomeruli from at least three mice per group) was “normalization” and the “Age at which proteinuria was first detected” value ([7]; normally detected by 3 weeks of age) was 6 weeks of age. For the same compound, the “Mesangial filopodial invasion of glomerular capillaries” value ([7]; once daily oral gavage from 2 weeks to 7 weeks of age, vs vehicle) was “near complete absence”, the “Proteinuria after the onset” value ([7]; urinary albumin normalized to creatinine) was “significantly reduced” and the “Glomerular expression of MMP-10, -12 and MCP-1 compared with the reduction seen with Bosentan” value ([7]; with the exception of TGF-β1) was “quantitatively similar results”. For the same compound, the “Mesangial filopodial invasion and deposition of laminin 211 in the glomerular capillaries” value [1] was “highly effective”, the “Ameliorating Alport renal disease (comparison of the two antagonists)” value [1] was “equally effective” and the GBM structural abnormalities [1] was “ameliorating”. For the same compound, the “Glomerular expression of MMPs and pro-inflammatory cytokines” value [1] was “significantly reducing”, the “Mesangial process invasion of the glomerular capillaries” value [1] was “markedly reduced” and the “Onset and progression of proteinuria” value [1] was “delaying the onset and progression”. For the same compound, the “Endothelin-1 induced formation of drebrin-positive microspikes, with antagonist pretreatment” value (cultured mesangial cells; [9]) was “blocks”.
With ML141 the “Integrin α1-null mesangial cell migration” value [4] was “unaffected”, the “LPS-induced morphological change (filopodia / actin spikes) in presence of inhibitor” value [5] was “could not be distinguished in blinded experiments form untreated wild type mesangial cells” and the “Migration of wild type mesangial cells” value [3] was “significantly reduced”.
“endothelin-1: stimulus activating endothelin receptors on mesangial cells” was tested, and the “CDC42 activation (GTP-CDC42) on stimulation” value (CDC42; [10]) was “significantly activates” and the “Formation of drebrin-positive filopodial microspikes on stimulation” value (cultured mesangial cells; [10]) was “induces”.
